{
  "source": "patent US20190054103A1",
  "about": "“METHOD OF TREATMENT OF TP53 WILD-TYPE TUMORS WITH 2',2'-DIFLUORO-5-AZA-2'-DEOXYCYTIDINE OR PRODRUGS THEREOF” (priority 2016, published 2019)",
  "key": {"[1]": {"test_system": "HL-60 (leukemia, TP null)", "details": "HL-60 nude mice"}, "[2]": {"details": "in vivo"}, "[3]": {"test_system": "LoVo (colon cancer, TP WT)", "experiment": "Xenograft model, nude mice implanted with LoVo", "details": "NUC041 treatment, 8 days following the end of treatment"}, "[4]": {"experiment": "Pharmacokinetics after SC administration of NUC041 in phospholipid gel depot to mice", "details": "analyte in plasma following SC administration of NUC041 (100 mg/kg) to mice"}, "[5]": {"test_system": "TP53 WT colon cancer cell line Ls174T", "experiment": "CellTiter-Glo growth inhibition, Ls174T", "format": "cell-based", "details": "72-hour exposure, FIG. 1", "description": "(§1) Two examples of additional comparisons are provided below for colon cancer cell lines (TP53 WT colon cancer cell line Ls174T and TP53 WT colon cancer cell line LoVo).\n(§2) In these assays, two 96 well plates of each cell line were seeded with 5,000 cells per well in a total volume of […] per well and left incubating overnight. The following day, the cells were exposed to different concentrations of NUC013. At the end of a 72-hour exposure period, the plates were removed for CellTiter-Glo® assay. Luminescence was recorded on a Synergy 4.0."}, "[6]": {"test_system": "TP53 WT colon cancer cell line LoVo", "experiment": "CellTiter-Glo growth inhibition, LoVo", "format": "cell-based", "details": "72-hour exposure, FIG. 2", "description": "as §1, §2"}, "HeLa cells": {"test_system": "HeLa cells", "experiment": "Nucleotide concentrations in HeLa cell extracts by HPLC (RNR inhibition)", "format": "cell-based", "details": "50 μM, 16 h incubation", "from_the_text": "The more common approach is to synthesize a nucleoside diphosphate and then determine whether it inhibits RNR or p53R2. […] Nucleic Acids Research. […] The other approach is to expose cells in tissue culture to the drug and then attempt to determine whether deoxynucleotide synthesis is inhibited when compared to control cells. Measurement of deoxynucleotides may be done by radioimmunoassay or by HPLC. The disadvantage of a radioimmunoassay is that it can only measure a single deoxynucleotide triphosphate (dNTP) at a time and typically requires a tritiated nucleotide, but it is the preferred method for measuring dCTP [Piall E M, Aherne G W, Marks V. The quantitative determination of 2′-deoxycytidine-5′ triphosphate in cell extracts by radioimmunoassay. Anal Biochem. 1986; 154(1):276-281 incorporated herein by reference in its entirety]. On the other hand, HPLC can measure multiple nucleotides without requiring radiolabeling, but has been noted to quantitate poorly dC nucleotides, possibly as an artifact of an influx of dCTP from the medium [Bianchi V, Pontis E, Reichard P. Changes of deoxyribonucleoside triphosphate pools induced by hydroxyurea and their relation to DNA synthesis. J Biol Chem. 1986; 261(34): 16037-16042 incorporated herein by reference in its entirety]. This approach was used to determine RNR inhibition by NUC013.\nBriefly, HeLa cells ([…]) were grown in the presence or absence of drug, in this case gemcitabine or NUC013. At the end of a 16 h incubation, the medium was aspirated, cells monolayers washed twice with PBS, and used for nucleotide extraction. The nucleotides were extracted from cell monolayers by the addition of ice-cold 80% acetonitrile (ACN) for 1 h. The extracts were centrifuged to remove cellular debris and loaded on a SAX column (100 mg, Supelco) pre-conditioned with methanol, water and ACN. Once the sample was completely effused, the cartridge was washed with 3 ml 80% ACN and 3 ml water and eluted with 1M KCl. The eluent was filtered through a 0.45 μm filter membrane (Roth) and analyzed by HPLC. Peak identification of the different nucleoside mono-, di-, and triphosphates, was made from their characteristic UV absorption spectra and retention times compared with those of a mixture of standards run immediately before cell extracts. The area of individual peaks was measured using ChemStation software (Agilent)."}},
  "data": [
    {"compound": "C[Si](C)(C)OC[C@H]1O[C@@H](n2cnc(N)nc2=O)C(F)(F)[C@@H]1O[Si](C)(C)C", "note": "[NUC041, 4-amino-1-((2R,4R,5R)-3,3-difluoro-4-(trimethylsilyloxy)-5-((trimethylsilyloxy)methyl)tetrahydrofuran-2-yl)-1,3,5-triazin-2(1H)-one]", "values": [
      {"measurement": "hazard ratio (HR) vs saline control", "setting": "[1]; 31 mg/kg intravenously, oil in water emulsion", "value": 0.51},
      {"measurement": "pharmacokinetic advantage over NUC013", "setting": "[2]", "value": "did not demonstrate a pharmacokinetic advantage over NUC013"},
      {"measurement": "tumor weights less than saline controls", "setting": "[3]", "value": 26.6, "unit": "%"},
      {"measurement": "AUClast (area under the plasma concentration versus time curve from 0 to last quantifiable sampling time)", "setting": "[4]", "value": 20.0, "unit": "ng·h/mL"}
    ]},
    {"compound": "4-amino-1-((2R,4R,5R)-3,3-difluoro-4- hydroxy-5- (hydroxymethyl)tetrahydrofuran-2- yl)pyrimidin-2(1I)-one hydrochloride [Gemcitabine, reference compound]", "values": [
      {"measurement": "GI50", "setting": "[5]", "value": "> 50", "unit": "µM"},
      {"measurement": "GI50", "setting": "[6]", "value": "> 50", "unit": "µM"},
      {"measurement": "ADP", "setting": "HeLa cells", "value": "15,639"},
      {"measurement": "ATP", "setting": "HeLa cells", "value": "26,296"},
      {"measurement": "CTP", "setting": "HeLa cells", "value": "1,297"},
      {"measurement": "GTP", "setting": "HeLa cells", "value": "2,036"},
      {"measurement": "UTP", "setting": "HeLa cells", "value": "4,801"},
      {"measurement": "dATP, peak area, AU", "setting": "HeLa cells", "value": 0, "unit": "AU"},
      {"measurement": "dGDP, peak area, AU", "setting": "HeLa cells", "value": 7.95, "unit": "AU"},
      {"measurement": "dTDP, peak area, AU", "setting": "HeLa cells", "value": 43.4, "unit": "AU"},
      {"measurement": "dUTP, peak area, AU", "setting": "HeLa cells", "value": 5.3, "unit": "AU"}
    ]},
    {"compound": "Nc1ncn([C@H]2C[C@H](O)[C@@H](CO)O2)c(=O)n1", "note": "[Decitabine, 4-amino-1-((2R,4S,5R)-4-hydroxy-5-(hydroxymethyl)tetrahydrofuran-2-yl)-1,3,5-triazin-2(1I)-one]", "values": [
      {"measurement": "mice dead or moribund prior to the conclusion of the study", "setting": "[1]; 5 mg/kg per day for three consecutive days a week for three weeks", "value": "Four of ten"}
    ]}
  ]
}
